From patent US20110124033A1, “FLUORESCENCE BASED ASSAY TO DETECT SODIUM/CALCIUM EXCHANGER (NCX ) "REVERSE MODE" MODULATING COMPOUNDS” (SANOFI-AVENTIS, priority 2008, published 2011)

Key:
human NCX1 = human NCX1 (Homo sapiens, UniProt P32418); conditions: 5 mM nickel
Description: (§1) The cultured cells were detached by application of iced PBS (phosphate buffered saline) or Trypsin at least 18 hours prior to electrophysiological experiments and replated on cover slips.
(§2) Two bath solutions and pipette solutions were prepared for patch clamp experiments with the following composition:
(§3) 135 mM NMG, 5 mM MgCl2, 2 mM CaCl2, 4 mM EGTA, 30 mM HEPES, pH 7.4
(§4) 139 mM NMG, 5 mM MgCl2, 2 mM CaCl2, 30 mM HEPES, pH 7.4
(§5) 100 mM NaCl, 5 mM KCl, 2 mM CaCl2, 2 mM MgCl2, 2.1 mM EGTA, 35 mM TEA-Cl, 4 mM Mg-ATP, 0.5 mM Na-GTP,
(§6) 5.63 mM Phosphocreatine, 30 mM HEPES, […] Creatine Phosphokinase (70 ml pipette solution+3500 U filtered Creatine Phosphokinase, ad 100 ml pipette solution), pH 7.4 (NaOH)
(§7) To inhibit NCX currents, 5 mM nickel chloride was dissolved in bath solution “high calcium”. NCX activity was measured using the patch clamp technique in the whole cell configuration. The cells were clamped at room temperature (20-25° C.) to a holding potential of 0 mV. NCX currents were evoked by application of 2 mM external calcium (bathsolution “high calcium”) for 4 seconds (=control). Calcium application was repeated every 20 s. After 5 stimulations, inhibition by nickel was tested using the same protocol but activation with calcium in the presence of 5 mM nickel (5 replicates). Finally, 5 calcium pulses were applied again for washout studies. To characterize NCX currents, peak currents, transported charge and the time constant of signal decay were investigated and analyzed according to the report. All data are presented as mean±SEM.

human NCX2 = human NCX2 (Homo sapiens, UniProt Q9UPR5)
Description: as §1, §2, §3, §4, §5, §6, §7

human NCX3 = human NCX3 (Homo sapiens, UniProt P57103)
Description: as §1, §2, §3, §4, §5, §6, §7

[1] = after 5 mM nickel, 5 calcium pulses for washout

Sequence of human NCX2 (Q9UPR5 21-921): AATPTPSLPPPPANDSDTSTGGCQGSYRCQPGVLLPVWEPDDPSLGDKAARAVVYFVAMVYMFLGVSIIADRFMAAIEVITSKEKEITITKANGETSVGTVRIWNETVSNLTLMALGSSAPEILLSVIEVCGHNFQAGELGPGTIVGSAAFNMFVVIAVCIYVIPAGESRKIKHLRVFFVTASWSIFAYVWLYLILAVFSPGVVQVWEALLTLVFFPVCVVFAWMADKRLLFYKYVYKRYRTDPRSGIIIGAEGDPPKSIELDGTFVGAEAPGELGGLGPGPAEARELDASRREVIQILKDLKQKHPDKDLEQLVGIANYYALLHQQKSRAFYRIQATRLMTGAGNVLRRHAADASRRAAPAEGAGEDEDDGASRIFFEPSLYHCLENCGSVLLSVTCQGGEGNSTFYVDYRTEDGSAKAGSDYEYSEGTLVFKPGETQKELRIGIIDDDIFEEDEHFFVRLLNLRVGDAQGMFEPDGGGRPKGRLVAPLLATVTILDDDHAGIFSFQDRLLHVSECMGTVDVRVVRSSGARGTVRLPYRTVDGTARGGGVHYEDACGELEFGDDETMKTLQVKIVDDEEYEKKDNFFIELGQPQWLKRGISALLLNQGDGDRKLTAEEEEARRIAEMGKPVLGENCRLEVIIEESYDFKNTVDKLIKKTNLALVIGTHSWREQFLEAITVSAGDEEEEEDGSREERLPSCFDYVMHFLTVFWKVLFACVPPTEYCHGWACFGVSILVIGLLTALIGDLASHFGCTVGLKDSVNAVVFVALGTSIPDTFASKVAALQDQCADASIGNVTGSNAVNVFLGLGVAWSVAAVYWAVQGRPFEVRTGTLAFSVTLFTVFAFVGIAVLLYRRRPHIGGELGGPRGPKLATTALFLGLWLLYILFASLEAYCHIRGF
Sequence of human NCX3 (P57103 31-924 isoform P57103-6 limits assumed): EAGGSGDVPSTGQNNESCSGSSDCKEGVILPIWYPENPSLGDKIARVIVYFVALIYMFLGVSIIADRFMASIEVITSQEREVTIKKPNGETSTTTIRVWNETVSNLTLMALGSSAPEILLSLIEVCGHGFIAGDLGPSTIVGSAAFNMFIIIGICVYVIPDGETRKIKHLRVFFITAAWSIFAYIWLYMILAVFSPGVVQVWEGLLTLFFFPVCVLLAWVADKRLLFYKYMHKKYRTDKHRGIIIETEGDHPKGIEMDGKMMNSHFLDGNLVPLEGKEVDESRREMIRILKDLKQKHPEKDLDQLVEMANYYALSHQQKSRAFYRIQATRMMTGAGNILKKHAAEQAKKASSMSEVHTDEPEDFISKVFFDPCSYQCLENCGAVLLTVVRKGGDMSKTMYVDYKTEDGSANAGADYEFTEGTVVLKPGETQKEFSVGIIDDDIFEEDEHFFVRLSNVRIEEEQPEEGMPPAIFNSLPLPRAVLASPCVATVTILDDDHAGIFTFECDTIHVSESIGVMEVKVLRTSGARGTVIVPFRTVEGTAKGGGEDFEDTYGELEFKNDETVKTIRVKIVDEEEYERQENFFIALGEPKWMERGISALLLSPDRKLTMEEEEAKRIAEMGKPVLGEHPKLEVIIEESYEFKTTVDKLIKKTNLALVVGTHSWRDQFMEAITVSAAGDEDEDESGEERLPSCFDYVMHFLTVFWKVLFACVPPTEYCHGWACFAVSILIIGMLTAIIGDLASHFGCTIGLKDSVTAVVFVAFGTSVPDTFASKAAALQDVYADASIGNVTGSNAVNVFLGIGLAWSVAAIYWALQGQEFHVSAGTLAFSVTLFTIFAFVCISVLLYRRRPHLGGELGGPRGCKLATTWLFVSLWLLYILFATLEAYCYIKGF

In the case of `[Cl][Ni][Cl]` [nickel, nickel chloride], the “Block of NCX1 outward currents (in words)” value (human NCX1) is reported as “completely and reversible blocked”, the “Block of NCX1 outward currents” value (human NCX1; reverse mode, 2 mM external Ca2+, holding potential 0 mV) is reported as 91.3±3.3% and the “Block of NCX2 outward currents (in words)” value (human NCX2; 5 mM nickel) is reported as “completely and reversible blocked”. The “Washout after nickel block, NCX2 currents” value (human NCX2; [1]) was 100.2±1.9%, the “Block of NCX3 outward currents (in words)” value (human NCX3; 5 mM nickel) was “completely and reversible blocked” and the “Washout after nickel block, NCX3 currents” value (human NCX3; [1]) was 111.5±2.4%.
